Results as given in the supplement of paper PMC10307832.

What was measured:
Test in all cases: relative viability (nuclei count vs DMSO), 5 days (fraction); higher = more cells survive
NCI-H1755 = test system: NCI-H1755
Procedure, shortened: (§1)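 Lung cancer cell lines in 1536-well plates got either a single drug or a fixed anchor-drug dose together with five library-drug doses (not always all listed) in √10 steps, by pin tool, on the day after seeding. Nuclei were counted after 5 days, and relative viability is the treated-to-vehicle ratio of nuclei counts. Values are medians of duplicate plates.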

LXF-289 = test system: LXF-289
Procedure, shortened: as §1

HCC-78 = test system: HCC-78
Procedure, shortened: as §1

HCC-15 = test system: HCC-15
Procedure, shortened: as §1

NCI-H2085 = test system: NCI-H2085
Procedure, shortened: as §1

NCI-H3122 = test system: NCI-H3122
Procedure, shortened: as §1

EPLC-272H = test system: EPLC-272H
Procedure, shortened: as §1

NCI-H2023 = test system: NCI-H2023
Procedure, shortened: as §1

NCI-H358 = test system: NCI-H358
Procedure, shortened: as §1

CAL-12T = test system: CAL-12T
Procedure, shortened: as §1

NCI-H441 = test system: NCI-H441
Procedure, shortened: as §1

NCI-H2126 = test system: NCI-H2126
Procedure, shortened: as §1

HOP-62 = test system: HOP-62
Procedure, shortened: as §1

NCI-H1666 = test system: NCI-H1666
Procedure, shortened: as §1

NCI-H1915 = test system: NCI-H1915
Procedure, shortened: as §1

UMC-11 = test system: UMC-11
Procedure, shortened: as §1

EMC-BAC-2 = test system: EMC-BAC-2
Procedure, shortened: as §1

ChaGo-K-1 = test system: ChaGo-K-1
Procedure, shortened: as §1

ABC-1 = test system: ABC-1
Procedure, shortened: as §1

NCI-H1975 = test system: NCI-H1975
Procedure, shortened: as §1

NCI-H322M = test system: NCI-H322M
Procedure, shortened: as §1

COR-L 105 = test system: COR-L 105
Procedure, shortened: as §1

O=c1cc(-c2cccc3c2Sc2ccccc2S3)oc(N2CCOCC2)c1 + O=C(c1cc(Cc2n[nH]c(=O)c3ccccc23)ccc1F)N1CCN(C(=O)C2CC2)CC1 [Olaparib] (partner 8 µM)
relative viability (NCI-H1755; first compound 0.08 µM): 0.843
relative viability (NCI-H1755; first compound 0.253 µM): 0.998
relative viability (NCI-H1755; first compound 0.8 µM): 0.846
relative viability (NCI-H1755; first compound 2.53 µM): 0.884
relative viability (NCI-H1755; first compound 8 µM): 0.91
relative viability (LXF-289; first compound 0.08 µM): 1.17
relative viability (LXF-289; first compound 0.253 µM): 1.36
relative viability (LXF-289; first compound 0.8 µM): 1.18
relative viability (LXF-289; first compound 2.53 µM): 1.11
relative viability (LXF-289; first compound 8 µM): 1.21
relative viability (HCC-78; first compound 0.08 µM): 0.792
relative viability (HCC-78; first compound 0.253 µM): 0.853
relative viability (HCC-78; first compound 0.8 µM): 0.935
relative viability (HCC-78; first compound 2.53 µM): 0.839
relative viability (HCC-78; first compound 8 µM): 0.734
relative viability (HCC-15; first compound 0.08 µM): 0.756
relative viability (HCC-15; first compound 0.253 µM): 0.772
relative viability (HCC-15; first compound 0.8 µM): 0.707
relative viability (HCC-15; first compound 2.53 µM): 0.654
relative viability (HCC-15; first compound 8 µM): 0.485
relative viability (NCI-H2085; first compound 0.08 µM): 0.771
relative viability (NCI-H2085; first compound 0.253 µM): 0.846
relative viability (NCI-H2085; first compound 0.8 µM): 0.857
relative viability (NCI-H2085; first compound 2.53 µM): 0.762
relative viability (NCI-H2085; first compound 8 µM): 0.654
relative viability (NCI-H3122; first compound 0.08 µM): 0.658
relative viability (NCI-H3122; first compound 0.253 µM): 0.745
relative viability (NCI-H3122; first compound 0.8 µM): 0.584
relative viability (NCI-H3122; first compound 2.53 µM): 0.604
relative viability (NCI-H3122; first compound 8 µM): 0.63
relative viability (EPLC-272H; first compound 0.08 µM): 0.986
relative viability (EPLC-272H; first compound 0.253 µM): 0.896
relative viability (EPLC-272H; first compound 0.8 µM): 0.998
relative viability (EPLC-272H; first compound 2.53 µM): 0.774
relative viability (EPLC-272H; first compound 8 µM): 0.483
relative viability (NCI-H2023; first compound 0.08 µM): 0.445
relative viability (NCI-H2023; first compound 0.253 µM): 0.513
relative viability (NCI-H2023; first compound 0.8 µM): 0.435
relative viability (NCI-H2023; first compound 2.53 µM): 0.345
relative viability (NCI-H2023; first compound 8 µM): 0.348
relative viability (NCI-H358; first compound 0.08 µM): 0.636
relative viability (NCI-H358; first compound 0.253 µM): 0.676
relative viability (NCI-H358; first compound 0.8 µM): 0.589
relative viability (NCI-H358; first compound 2.53 µM): 0.64
relative viability (NCI-H358; first compound 8 µM): 0.719
relative viability (CAL-12T; first compound 0.08 µM): 0.77
relative viability (CAL-12T; first compound 0.253 µM): 0.738
relative viability (CAL-12T; first compound 0.8 µM): 0.759
relative viability (CAL-12T; first compound 2.53 µM): 0.731
relative viability (CAL-12T; first compound 8 µM): 0.402
relative viability (NCI-H441; first compound 0.08 µM): 0.603
relative viability (NCI-H441; first compound 0.253 µM): 0.708
relative viability (NCI-H441; first compound 0.8 µM): 0.518
relative viability (NCI-H441; first compound 2.53 µM): 0.461
relative viability (NCI-H441; first compound 8 µM): 0.432
relative viability (NCI-H2126; first compound 0.08 µM): 1.06
relative viability (NCI-H2126; first compound 0.253 µM): 0.991
relative viability (NCI-H2126; first compound 0.8 µM): 1.01
relative viability (NCI-H2126; first compound 2.53 µM): 0.9
relative viability (NCI-H2126; first compound 8 µM): 0.91
relative viability (HOP-62; first compound 0.08 µM): 0.374
relative viability (HOP-62; first compound 0.253 µM): 0.52
relative viability (HOP-62; first compound 0.8 µM): 0.543
relative viability (HOP-62; first compound 2.53 µM): 0.49
relative viability (HOP-62; first compound 8 µM): 0.576
relative viability (NCI-H1666; first compound 0.08 µM): 0.691
relative viability (NCI-H1666; first compound 0.253 µM): 0.733
relative viability (NCI-H1666; first compound 0.8 µM): 0.681
relative viability (NCI-H1666; first compound 2.53 µM): 0.691
relative viability (NCI-H1666; first compound 8 µM): 0.671
relative viability (NCI-H1915; first compound 0.08 µM): 0.425
relative viability (NCI-H1915; first compound 0.253 µM): 0.266
relative viability (NCI-H1915; first compound 0.8 µM): 0.296
relative viability (NCI-H1915; first compound 2.53 µM): 0.305
relative viability (NCI-H1915; first compound 8 µM): 0.226
relative viability (UMC-11; first compound 0.08 µM): 0.365
relative viability (UMC-11; first compound 0.253 µM): 0.74
relative viability (UMC-11; first compound 0.8 µM): 0.325
relative viability (UMC-11; first compound 2.53 µM): 0.344
relative viability (UMC-11; first compound 8 µM): 0.42
relative viability (EMC-BAC-2; first compound 0.08 µM): 0.523
relative viability (EMC-BAC-2; first compound 0.253 µM): 0.568
relative viability (EMC-BAC-2; first compound 0.8 µM): 0.518
relative viability (EMC-BAC-2; first compound 2.53 µM): 0.571
relative viability (EMC-BAC-2; first compound 8 µM): 0.514
relative viability (ChaGo-K-1; first compound 0.08 µM): 0.503
relative viability (ChaGo-K-1; first compound 0.253 µM): 0.494
relative viability (ChaGo-K-1; first compound 0.8 µM): 0.415
relative viability (ChaGo-K-1; first compound 2.53 µM): 0.466
relative viability (ChaGo-K-1; first compound 8 µM): 0.411
relative viability (ABC-1; first compound 0.08 µM): 0.821
relative viability (ABC-1; first compound 0.253 µM): 0.718
relative viability (ABC-1; first compound 0.8 µM): 0.735
relative viability (ABC-1; first compound 2.53 µM): 0.777
relative viability (ABC-1; first compound 8 µM): 0.75
relative viability (NCI-H1975; first compound 0.08 µM): 0.831
relative viability (NCI-H1975; first compound 0.253 µM): 0.94
relative viability (NCI-H1975; first compound 0.8 µM): 0.737
relative viability (NCI-H1975; first compound 2.53 µM): 0.666
relative viability (NCI-H1975; first compound 8 µM): 0.598
relative viability (NCI-H322M; first compound 0.08 µM): 0.523
relative viability (NCI-H322M; first compound 0.253 µM): 0.751
relative viability (NCI-H322M; first compound 0.8 µM): 0.746
relative viability (NCI-H322M; first compound 2.53 µM): 0.811
relative viability (NCI-H322M; first compound 8 µM): 0.729
relative viability (COR-L 105; first compound 0.08 µM): 0.546
relative viability (COR-L 105; first compound 0.253 µM): 0.665
relative viability (COR-L 105; first compound 0.8 µM): 0.468
relative viability (COR-L 105; first compound 2.53 µM): 0.682
relative viability (COR-L 105; first compound 8 µM): 0.78
